Source: patent US8637525B2, “Compounds for the reduction of beta-amyloid production” (Bristol-Myers Squibb Company, priority 2009, dated 2014)
pIC50: −log10 of the molar value.

Test system: Aβ1-42 production
Experiment: Cellular assay for inhibition of Aβ1-42 production (H4 APP751 SWE clone 8.20)
Type: cell-based
Settings: 19 h, H4 APP751 SWE clone 8.20 cells, 19 h incubation; class symbols; read-out: Activity Rating (Aβ42 cellular IC50)
Outline: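 Viewlux signal read-out; IC50 by curve fit. Sandwich: 565 anti-Aβ42 neoepitope (Wallac conjugate, 0.8 ng/well) + 26D6 anti-N-terminus (APC, 75 ng/well), in Tris-HCl 40 mM pH 7.4/0.2% BSA, o/n 4 °C. Cells exposed to compound 19 h, 37 °C, 5% CO2.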

Structure (SMILES)	pIC50
CNc1nc(Nc2ccc(-n3cnc(C)n3)c(OC)c2)nc2c1CC[C@@H]2c1cccc(OC)c1 [Example 272B, (R)—N2-(3-methoxy-4-(3-methyl-1H-1,2,4-triazol-1-yl)phenyl)-7-(3-methoxyphenyl)-N4-methyl-6,7-dihydro-5H-cyclopenta[d]pyrimidine-2,4-diamine]	7.00 to 8.00
CNc1nc(Nc2ccc(-n3cnc(C)n3)c(OC)c2)nc2c1CCC2c1ccc(N(C)C)cc1 (centres unmarked) [Example 273, 7-(4-(dimethylamino)phenyl)-N2-(3-methoxy-4-(3-methyl-1H-1,2,4-triazol-1-yl)phenyl)-N4-methyl-6,7-dihydro-5H-cyclopenta[d]pyrimidine-2,4-diamine]	7.00 to 8.00
CNc1nc(Nc2ccc(-n3cnc(C)n3)c(OC)c2)nc2c1CCC2c1ccc(C(F)(F)F)nc1 (centres unmarked) [Example 276, N2-(3-methoxy-4-(3-methyl-1H-1,2,4-triazol-1-yl)phenyl)-N4-methyl-7-(6-(trifluoromethyl)pyridin-3-yl)-6,7-dihydro-5H-cyclopenta[d]pyrimidine-2,4-diamine]	7.00 to 8.00
CNc1nc(Nc2ccc(-c3cc(Cl)ncn3)c(OC)c2)nc2c1CCC2c1ccccc1 (centres unmarked) [Example 277, N2-(4-(6-chloropyrimidin-4-yl)-3-methoxyphenyl)-N4-methyl-7-phenyl-6,7-dihydro-5H-cyclopenta[d]pyrimidine-2,4-diamine]	< 6.00
CNc1nc(Nc2ccc(-c3ccnc(Cl)c3)c(OC)c2)nc2c1CCC2c1ccccc1 (centres unmarked) [Example 278, N2-(4-(2-chloropyridin-4-yl)-3-methoxyphenyl)-N4-methyl-7-phenyl-6,7-dihydro-5H-cyclopenta[d]pyrimidine-2,4-diamine]	7.00 to 8.00
